Source: patent publication US20250243174A1, “ANTITUMORAL COMPOUNDS” (PHARMA MAR, S.A., priority 2021, published 2025)

Experiments:
Assay type in all cases: in vivo
Conditions in all cases: for TV, median (IQR) / Median survival time: iv Q7dx3; for TV, median (IQR): high dose: PM060184 16, Comp. 2 2, Comp. 3 1 mg/kg
[1] = test system: H460 xenografts; test: Example 5, NSCLC xenograft model H460
Experimental: (§1) Female athymic nu/nu mice (Harlan Laboratories Models, S.L. Barcelona, Spain or Envigo, Spain) were utilized for all experiments. Animal were housed in individually ventilated cages Sealsafe® Plus, Techniplast S.P.A.), up to ten per cage on a 12-hour light-dark cycle at 21-23° C. and 40-60% humidity. Mice were allowed free access to irradiated standard rodent diet (Tecklad 2914C) and sterilized water. Animals were acclimated for at least 5 days prior to tumor implantation with a tumor cell suspension.
H460 cells were maintained in vitro at 37° C. with 5% CO2 in Dulbecco's Modified Eagle's Medium (Sigma-Aldrich, Co). Culture cells were passaged every 3 to 5 days upon reaching confluence. Each animal was subcutaneously implanted (on the right flank using 26G needle and a 1 cc syringe) at 4-6 weeks of age with 5×10^6 H460 cells suspended in 0.05 mL of a solution consisting of 50% Matrigel® (Corning Incorporated Life Sciences) and 50% medium without serum or antibiotics.
(§2) All treatments were intravenously administered on a weekly basis at their MTD, ¼ MTD and 1/16 MTD (high, medium and low dose).
(§3) Briefly: • 4 to 6 week-old athymic nu/nu female mice were subcutaneously implanted with tumor cells growing in culture. • When tumors reached a certain volume, tumor bearing animals (N=8-10/group) were randomly allocated into treatment groups. • Tumor dimensions and body weights were recorded 2-3 times per week starting from the first day of treatment (Day 0). Treatments producing >20% lethality and/or 20% net body weight loss were considered toxic. Tumor volume was calculated using the equation (a·b^2)/2, where a and b were the longest and shortest diameters, respectively. Animals were euthanized when their tumors reached ca. 2,000 mm^3 and/or severe necrosis was seen. • Median was calculated for tumor volume on each measurement day. • Antitumor effect was assessed comparing tumor volume data from groups following the 1st, 2nd, 3rd study weeks, or more depending on the case, using a two-tailed Mann-Whitney U test. The data are presented as medians and interquartile range (IQR). • Complete tumor regression (CR) was defined when tumor volume<63 mm^3 for 2 or more consecutive measurements. • Treatment tolerability was assessed by monitoring body weight evolution, clinical signs of systemic toxicity as well as evidences of local damage at the injection site.
(§4) PM060184 was provided in the form of freeze-dried vials of lyophilized product. Each vial was reconstituted with water for infusion to a concentration of 2.5 mg/mL.
(§5) Compounds 2 and 3 were provided in the powder form and were solubilized with hydroxy-propyl-β-cyclodextrin (HPβCD), reaching a concentration of 1 mg/ml or 0.2 mg/ml, respectively. Placebo was provided in the form of lyophilised cake containing 1.2 g of hydroxy-propyl-β-cyclodextrin (HPβCD) which was reconstituted with water for infusion.
(§6) In these experiments, compounds 2, 3 and PM060184, as well as placebo, were intravenously administered once per week for 3 consecutive weeks, on Days 0, 7 and 14, whenever it was possible.
The experiment was carried out as previously explained. When tumors reached ca. 160-170 mm^3, tumor bearing animals (N=10/group) were randomly allocated into the following treatment groups:
(§7) Treatments were initiated on Day 0.

[2] = test system: HGC-27 xenografts; test: Example 6, gastric xenograft model HGC-27
Experimental: as §1
HGC27 cells were maintained in vitro at 37° C. with 5% CO2 in Iscove's Modified Dulbecco's Medium (Sigma Aldrich, Co). Culture cells were passage every 3 to 5 days on reaching confluence. Each animal was subcutaneously implanted (on the right flank using 26G needle and a 1 cc syringe) at 4-6 weeks of age with 5×10^6 HGC-27 cells suspended in 0.05 mL of a solution consisting of 50% Matrigel® (Corning Incorporated Life Sciences), 50% medium without serum or antibiotics.
as §2, §3, §4, §5, §6
The experiment was carried out as previously explained. When tumors reached ca. 165-175 mm^3, tumor bearing animals (N=8/group) were randomly allocated into the following treatment groups:
as §7

[3] = test system: HCT-116 xenografts; test: Example 7, colon xenograft model HCT-116
Experimental: as §1
HCT116 cells were maintained in vitro at 37° C., 5% Co2 in McCoy's 5A Medium (Sigma Aldrich, Co.). Culture cells were passage every 3 to 5 days on reaching confluence. Each animal was subcutaneously implanted (on the right flank using 26G needle and a 1 cc syringe) at 4-6 weeks of age with 5×10^6 HCT116 cells suspended in 0.05 mL of a solution consisting of 50% Matrigel® (Corning Incorporated Life Sciences) and 50% medium without serum or antibiotics.
as §2, §3, §4, §5, §6
The experiment was carried out as previously explained. When tumors reached ca. 195-205 mm^3, tumor bearing animals (N=10/group) were randomly allocated into the following treatment groups:
as §7

[4] = compound 2 2.0 mg/kg, compound 3 1.0 mg/kg
[5] = high dose: compound 2 2.0, compound 3 1.0, PM060184 16 mg/kg
[6] = highest dose: compound 2 2.0, compound 3 1.0 mg/kg
[7] = low dose: PM060184 1.0, Comp. 2 0.125, Comp. 3 0.0625 mg/kg
[8] = recorded on Day 9, compound 2 2.0 mg/kg, compound 3 1.0 mg/kg
[9] = high dose: PM060184 16.0, Comp. 2 2.0, Comp. 3 1.0 mg/kg, ud = group not reached mortality
[10] = medium dose: PM060184 4.0, Comp. 2 0.5, Comp. 3 0.25 mg/kg
[11] = medium-dose: compound 2 0.5, compound 3 0.25 mg/kg

`COC1=CC[C@@H]([C@@H](C)/C=C(C)/C=C\C=C/C(=O)N[C@H](C(=O)N/C=C\C[C@H](CC=C(C)C)OC(N)=O)C(C)(C)C)OC1=O` [Compound 3] was tested, and the “tumor reduction compared to placebo” value ([1]; Day 7, higher doses 16, 2 or 1 mg/kg) was “very strong, statistically significant tumor reduction”, the “TV, median (IQR)” value ([1]; Day 7) was 123.9 (93.4-157.6) mm3 and the “TV, median (IQR)” value ([1]; Day 14) was 80.3 (71.0-83.5) mm3. For the same compound, the “TV, median (IQR)” value ([1]; Day 21) was 59.3 (38.7-62.5) mm3, the “TV, median (IQR)” value ([1]; Day 28) was 77.6 (55.3-85.1) mm3 and the “TV, median (IQR)” value ([1]; Day 35) was 374.8 (257.4-438.2) mm3. For the same compound, the “antitumor activity of compound 3 compared to compound 2” value ([1]; at the MTD's, 1.0 mg/kg or 2.0 mg/kg) was “statistically significant higher antitumor activity than compound 2”, the “antitumor activity compared to PM060184 (16 mg/kg)” value [1, 4] was “stronger, statistically significant, antitumor activity” and the “mean time frame during which the animals had tumor remission” value [1, 4] was 7.8 days. For the same compound, the Median survival time ([1]; high dose: PM060184 16.0, Comp. 2 2.0, Comp. 3 1.0 mg/kg, 1 mg/kg) was 45.5 days, the Median survival time ([1]; high dose: PM060184 16.0, Comp. 2 2.0, Comp. 3 1.0 mg/kg, listed as Comp. 3, 1 mg/kg) was 48 days and the tumor remissions lasted [1, 5] was “more than 45.1 days”. The “animals with complete tumor remission” value [1, 6] was 100%, the Median survival time [1, 7] was 14 days and the Median survival time ([1]; medium dose: PM060184 4.0, Comp. 2 0.5, Comp. 3 0.25 mg/kg, 0.25 mg/kg) was 40 days. The Median survival time ([1]; medium dose: PM060184 4.0, Comp. 2 0.5, Comp. 3 0.25 mg/kg, listed as Comp. 3, 0.25 mg/kg) was 38.5 days, the “mean body weight reduction” value [1, 8] was “ca. −18.5%” and the “mean body weight reduction” value ([2]; Day 2, compound 2 2.0, compound 3 1.0, PM060184 16 mg/kg) was “ca. −13.1%”. For the same compound, the “TV, median (IQR)” value ([2]; Day 7) was 366.0 (300.1-479.8) mm3, the “TV, median (IQR)” value ([2]; Day 14) was 177.1 (142.3-256.0) mm3 and the “TV, median (IQR)” value ([2]; Day 21) was 75.0 (65.6-84.4) mm3. The “TV, median (IQR)” value ([2]; Day 28) was 66.7 (38.2-73.7) mm3, the “TV, median (IQR)” value ([2]; Day 35) was 27.3 (21.4-41.4) mm3 and the Median survival time [2, 9] was “ud”. The “mean time frame with tumor remission” value ([2]; high dose: compound 2 2.0, compound 3 1.0, PM060184 16 mg/kg, last observed day 63) was “higher than 31.5 days”, the “animals in complete tumor remission status” value [2, 6] was 100% and the Median survival time [2, 7] was 12 days. For the same compound, the Median survival time [2, 10] was 30 days, the “antitumor activity compared to PM060184-treated group at 16 mg/kg” value ([2]; once treatments were stopped (days 28, 35), 2 at 2 mg/kg, 3 at 1 mg/kg) was “big difference, in terms of antitumor activity, statistically significant” and the “TV, median (IQR)” value ([3]; Day 7) was 121.6 (86.3-164.8) mm3. For the same compound, the “TV, median (IQR)” value ([3]; Day 14) was 55.6 (16.2-82.3) mm3, the “TV, median (IQR)” value ([3]; Day 21) was 32.0 (4.0-40.0) mm3 and the “TV, median (IQR)” value ([3]; Day 28) was 13.5 (4.0-13.5) mm3. The “TV, median (IQR)” value ([3]; Day 35) was 13.5 (13.5-13.5) mm3, the Median survival time [3, 9] was “ud” and the “mean time with tumor remission” value [3, 5] was 23.7 days. For the same compound, the “animals in complete tumor remission” value [3, 6] was 100%, the Median survival time [3, 7] was 14 days and the Median survival time [3, 10] was 49 days. For the same compound, the “animals that reached a complete remission (n/10)” value [3, 11] was 1/10, the “complete remission lasted a mean of” value [3, 11] was 2 days and the “antitumor activity compared to PM060184-treated group at 16 mg/kg” value ([3]; once treatments were finalized (days 21 to 35), 2 at 2 mg/kg, 3 at 1 mg/kg) was “big difference, in terms of antitumor activity, statistically significant”. The “mean body weight reduction” value [3, 8] was “ca. −16.2%”.
